Tests used:
IRAK1 = target: T1, IRAK1 (Homo sapiens, UniProt P51617); assay: RBC HotSpot Kinase Assay, IRAK1; assay type: biochemical; details: isolated kinase, 33P-ATP
T1 construct: purchased Reaction Biology (RBC), HotSpot kinase assay
Excerpt: (§1) This assay uses the isolated kinase enzyme. This assay is very useful for determining competition of the inhibitor for ATP and/or substrates and for measuring the kinetics of enzyme inhibition. […] Unlike kinase binding assays that measure competition for ATP, the HotSpot Kinase Assay is a functional assay that measures catalytic activity; as such it measures relative functional potency regardless of the mechanism of enzyme inhibition. This assay uses the form of the various enzymes that are easiest to express, which may not necessarily be the form of the enzyme that exist in the cell. (Sometimes the carboxy terminus has been truncated to aid in expression, or, if it is a receptor kinase, the enzyme itself is isolated from the other parts of the receptor that are involved in regulating kinase activity.)
(§2) The reagent used was as follows: Base Reaction buffer; 20 mM Hepes (pH 7.5), 10 mM MgCl2, 1 mM EGTA, 0.01% Brij35, 0.02 mg/ml BSA, 0.1 mM Na3VO4, 2 mM DTT, 1% DMSO. Required cofactors were added individually to each kinase reaction.
(§3) The reaction procedure was as follows: • 1) Substrates were prepared in freshly prepared Reaction Buffer. • 2) Any required cofactors were delivered to the substrate solution above. • 3) Kinase was delivered into the substrate solution and gently mixed. • 4) Compounds were delivered in 100% DMSO into the kinase reaction mixture by Acoustic technology (Echo550; nanoliter range), followed by incubation for 20 min at room temp. • 5)^33P-ATP was delivered into the reaction mixture to initiate the reaction. • 6) The mixture was incubated for 2 hours at room temperature. • 7) Kinase activity was detected by P81 filter-binding method.

MOLM14 D835Y cells = assay: MOLM14 D835Y cell viability assay (Cell Titer Glo); assay type: cell-based
Description: (§4) Both cell lines have activated FLT3 receptors, each of which carry additional resistance mutations in the kinase domain (D835Y and F691L, respectively).
(§5) MOLM14 D835Y and MOLM14 F691L cells were grown in RPMI-1640 media supplemented with 20% fetal bovine serum (FBS). For viability/cytotoxicity assessments, cells were seeded into 1536-well white polystyrene tissue culture-treated Greiner plates using a Multidrop Combi dispenser (ThermoFisher), in final volume 5 μL of growth media per well, at a density of 1000 cells per well. After cell addition, 23 nL of test compound were transferred into individual wells (22 doses tested for each test compound, with a 1:2 dilution series starting at 10 μM) via a 1536 pin-tool. Bortezomib (final concentration 2.3 μM) was used as a positive control for cell cytotoxicity. Plates were incubated for 48 hours at standard incubator conditions covered by a stainless steel gasketed lid to prevent evaporation. 48 hours post compound addition, 3 μL of Cell Titer Glo (Promega) were added to each well and plates were incubated at room temperature for 15 minutes with the stainless-steel lid in place. Luminescence readings were taken using a Viewlux imager (PerkinElmer) with a 2 second exposure time per plate.

MOLM14 F691L cells = assay: MOLM14 F691L cell viability assay (Cell Titer Glo); assay type: cell-based
Description: as §4, §5

IRAK4 = target: T2, IRAK4 (Homo sapiens, UniProt Q9NWZ3); assay: RBC HotSpot Kinase Assay, IRAK4; assay type: biochemical; set-up: purchased Reaction Biology (RBC), HotSpot kinase assay; details: isolated kinase, 33P-ATP
T2 sequence (Q9NWZ3 1-460): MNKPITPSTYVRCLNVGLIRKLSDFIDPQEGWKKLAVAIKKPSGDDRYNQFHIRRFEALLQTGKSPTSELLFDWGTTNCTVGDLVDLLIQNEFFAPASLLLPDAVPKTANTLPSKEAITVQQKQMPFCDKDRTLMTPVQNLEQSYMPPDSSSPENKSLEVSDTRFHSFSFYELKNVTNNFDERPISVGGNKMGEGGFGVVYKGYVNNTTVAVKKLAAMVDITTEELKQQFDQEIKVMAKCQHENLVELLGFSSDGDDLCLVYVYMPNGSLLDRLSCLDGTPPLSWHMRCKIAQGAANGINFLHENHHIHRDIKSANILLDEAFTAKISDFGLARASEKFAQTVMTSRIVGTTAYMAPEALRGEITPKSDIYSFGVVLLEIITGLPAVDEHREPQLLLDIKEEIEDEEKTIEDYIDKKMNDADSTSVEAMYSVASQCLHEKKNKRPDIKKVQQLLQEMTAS
Excerpt: as §1, §2, §3

FLT3 = target: T3, FLT3 (Homo sapiens, UniProt P36888); assay: RBC HotSpot Kinase Assay, FLT3; assay type: biochemical; set-up: purchased Reaction Biology (RBC), HotSpot kinase assay; details: isolated kinase, 33P-ATP
T3 sequence (P36888 27-993): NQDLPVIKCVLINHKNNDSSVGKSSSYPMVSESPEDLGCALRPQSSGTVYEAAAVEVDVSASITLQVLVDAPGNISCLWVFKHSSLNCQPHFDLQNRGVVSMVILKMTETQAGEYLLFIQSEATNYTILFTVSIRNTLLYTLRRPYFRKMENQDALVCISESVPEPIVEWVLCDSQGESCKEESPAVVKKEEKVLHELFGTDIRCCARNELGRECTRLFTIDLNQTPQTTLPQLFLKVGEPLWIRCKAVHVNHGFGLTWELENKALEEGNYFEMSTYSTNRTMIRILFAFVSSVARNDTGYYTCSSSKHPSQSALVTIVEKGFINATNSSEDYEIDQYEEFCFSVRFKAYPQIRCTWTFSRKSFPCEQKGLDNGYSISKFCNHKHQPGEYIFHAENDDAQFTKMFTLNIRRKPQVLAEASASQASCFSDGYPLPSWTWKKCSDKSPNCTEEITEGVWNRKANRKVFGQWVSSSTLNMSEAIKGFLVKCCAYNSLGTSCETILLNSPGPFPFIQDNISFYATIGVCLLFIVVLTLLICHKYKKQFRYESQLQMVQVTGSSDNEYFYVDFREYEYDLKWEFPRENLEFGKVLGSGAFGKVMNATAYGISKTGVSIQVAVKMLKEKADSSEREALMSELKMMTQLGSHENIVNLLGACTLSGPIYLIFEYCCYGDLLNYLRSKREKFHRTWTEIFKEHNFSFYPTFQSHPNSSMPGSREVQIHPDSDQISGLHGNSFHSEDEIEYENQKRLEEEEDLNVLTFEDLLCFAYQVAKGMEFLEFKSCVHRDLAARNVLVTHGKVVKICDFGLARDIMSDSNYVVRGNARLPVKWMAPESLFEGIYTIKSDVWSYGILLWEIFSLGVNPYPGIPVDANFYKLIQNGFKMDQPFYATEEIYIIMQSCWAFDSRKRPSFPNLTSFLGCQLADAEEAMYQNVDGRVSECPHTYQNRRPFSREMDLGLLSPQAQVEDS
Excerpt: as §1, §2, §3

T1 sequence (P51617 whole entry): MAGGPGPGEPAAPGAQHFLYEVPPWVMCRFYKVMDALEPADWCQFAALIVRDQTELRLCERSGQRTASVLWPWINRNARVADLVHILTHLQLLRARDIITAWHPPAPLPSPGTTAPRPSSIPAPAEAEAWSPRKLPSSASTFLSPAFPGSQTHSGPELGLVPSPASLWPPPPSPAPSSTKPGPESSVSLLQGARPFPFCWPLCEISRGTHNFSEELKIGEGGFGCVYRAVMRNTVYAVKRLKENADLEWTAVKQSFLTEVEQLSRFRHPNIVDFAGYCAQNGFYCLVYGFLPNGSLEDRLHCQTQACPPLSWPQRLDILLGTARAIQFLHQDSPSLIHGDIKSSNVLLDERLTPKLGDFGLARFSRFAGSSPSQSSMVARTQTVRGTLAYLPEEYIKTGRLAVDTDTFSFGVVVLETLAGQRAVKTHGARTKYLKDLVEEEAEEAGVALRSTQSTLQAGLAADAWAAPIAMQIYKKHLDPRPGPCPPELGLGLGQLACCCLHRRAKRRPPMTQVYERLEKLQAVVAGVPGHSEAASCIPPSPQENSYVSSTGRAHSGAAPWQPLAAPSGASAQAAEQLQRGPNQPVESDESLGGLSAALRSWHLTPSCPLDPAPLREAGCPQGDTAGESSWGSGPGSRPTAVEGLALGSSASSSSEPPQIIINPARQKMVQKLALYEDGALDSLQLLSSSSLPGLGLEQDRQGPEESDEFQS

Structure (SMILES) | IC50 (IRAK1) [nM] | IC50 (MOLM14 D835Y cells; Homo sapiens, MOLM-14, 48 h) [nM] | IC50 (MOLM14 F691L cells; Homo sapiens, MOLM-14, 48 h) [nM] | IC50 (IRAK4) [nM] | IC50 (FLT3) [nM] | IC50 (MOLM14 D835Y cells; 48 hours) [nM] | IC50 (MOLM14 F691L cells; 48 hours) [nM]
F[C@H]1CNC[C@@H]1Nc1cccc(-c2cnc3cnc(C4(C(F)(F)F)CC4)cn23)n1 [Compound 8, N-((3S,4S)-4-fluoropyrrolidin-3-yl)-6-(6-(1-(trifluoromethyl)cyclopropyl)imidazo[1,2-a]pyrazin-3-yl)pyridin-2-amine] | 138 | 44 | 376 | 2 | < 0.5 | – | –
F[C@H]1CCNC[C@@H]1Nc1cccc(-c2cnc3cnc(C4(C(F)(F)F)CC4)cn23)n1 [Compound 13, N-((3S,4S)-4-fluoropiperidin-3-yl)-6-(6-(1-(trifluoromethyl)cyclopropyl)imidazo[1,2-a]pyrazin-3-yl)pyridin-2-amine] | 77 | 21 | 159 | 5 | < 0.5 | – | –
O=C1COCCN1c1cn2c(-c3cccc(N[C@H]4CNCC[C@@H]4F)n3)cnc2cn1 [Compound 112, 4-(3-(6-(((3S,4S)-4-fluoropiperidin-3-yl)amino)pyridin-2-yl)imidazo[1,2-a]pyrazin-6-yl)morpholin-3-one] | 1860 | 49 | 183 | 140 | < 0.5 | – | –
CC(O)(c1cn2c(-c3cccc(N[C@@H]4CCCNC4)n3)cnc2cn1)C(F)(F)F (stereo partly drawn) [Compound 79, 1,1,1-trifluoro-2-(3-(6-((R)-piperidin-3-ylamino)pyridin-2-yl)imidazo[1,2-a]pyrazin-6-yl)propan-2-ol] | – | 84 | 237 | – | – | – | –
CC(O)(c1cn2c(-c3cc(F)cc(N[C@H]4CNCC[C@@H]4F)n3)cnc2cn1)C(F)(F)F (single isomer, unassigned) [Compound 88] | 69 | – | – | 15 | 1 | 97 | 217
CC(C)Oc1cn2c(-c3cccc(N[C@H]4CNCC[C@@H]4F)n3)cnc2cn1 [compound 132, N-((3S,4S)-4-fluoropiperidin-3-yl)-6-(6-isopropoxyimidazo[1,2-a]pyrazin-3-yl)pyridin-2-amine] | 144 | 19 | 119 | 2 | < 0.5 | – | –
O=C1CCCN1c1cn2c(-c3nc(N[C@H]4CNC[C@@H]4F)c(F)cc3F)cnc2cn1 [Compound 109, 1-(3-(3,5-difluoro-6-(((3S,4S)-4-fluoropyrrolidin-3-yl)amino)pyridin-2-yl)imidazo[1,2-a]pyrazin-6-yl)pyrrolidin-2-one] | 52 | 137 | 1930 | 4 | 0.7 | – | –
F[C@H]1CNC[C@@H]1Nc1cccc(-c2cnc3cnccn23)n1 [Compound 68, N-((3S,4S)-4-fluoropyrrolidin-3-yl)-6-(imidazo[1,2-a]pyrazin-3-yl)pyridin-2-amine] | 727 | 47 | 473 | 4 | < 0.5 | – | –
CC(C)(C)c1cn2c(-c3cc(F)cc(N[C@H]4CNCC[C@@H]4F)n3)cnc2cn1 [Compound 124, 6-(6-(tert-butyl)imidazo[1,2-a]pyrazin-3-yl)-4-fluoro-N-((3S,4S)-4-fluoropiperidin-3-yl)pyridin-2-amine] | 143 | 130 | 290 | 17 | < 0.5 | – | –
CC(O)(c1cn2c(-c3nc(N[C@H]4CNC[C@@H]4F)c(F)cc3F)cnc2cn1)C(F)(F)F (single isomer, unassigned) [Compound 91] | 40 | – | 1540 | 2 | 3 | 195 | –
FC(F)COc1cn2c(-c3cccc(N[C@@H]4CCCNC4)n3)cnc2cn1 [Compound 75, (R)-6-(6-(2,2-difluoroethoxy)imidazo[1,2-a]pyrazin-3-yl)-N-(piperidin-3-yl)pyridin-2-amine] | 504 | 15 | 158 | 4 | < 0.5 | – | –
O=S1(=O)CCCN1c1cn2c(-c3nc(N[C@@H]4CCCNC4)c(F)cc3F)cnc2cn1 [Compound 104, (R)-2-(3-(3,5-difluoro-6-(piperidin-3-ylamino)pyridin-2-yl)imidazo[1,2-a]pyrazin-6-yl)isothiazolidine 1,1-dioxide] | 9 | 11 | 86 | 1 | < 0.5 | – | –
O=C1NCCN1c1cn2c(-c3cccc(N[C@@H]4CCCNC4)n3)cnc2cn1 [Compound 116, (R)-1-(3-(6-(piperidin-3-ylamino)pyridin-2-yl)imidazo[1,2-a]pyrazin-6-yl)imidazolidin-2-one] | 125 | 39 | 193 | 14 | 1 | – | –
CC(O)(c1cn2c(-c3cc(F)cc(N[C@@H]4CCCNC4)n3)cnc2cn1)C(F)(F)F (single isomer, unassigned) [Compound 85] | 106 | 154 | 290 | 54 | 0.6 | – | –
FC(F)c1cn2c(-c3cccc(N[C@H]4CNC[C@@H]4C(F)(F)F)n3)cnc2cn1 [Compound 19, 6-(6-(difluoromethyl)imidazo[1,2-a]pyrazin-3-yl)-N-((3R,4S)-4-(trifluoromethyl)pyrrolidin-3-yl)pyridin-2-amine] | 32 | 2 | 19 | < 0.5 | < 0.5 | – | –
Cn1cc(-c2cn3c(-c4cccc(N[C@@H]5CCNC5)n4)cnc3cn2)cn1 [Compound 49, (R)-6-(6-(1-methyl-1H-pyrazol-4-yl)imidazo[1,2-a]pyrazin-3-yl)-N-(pyrrolidin-3-yl)pyridin-2-amine] | 196 | 9 | – | 1 | < 0.5 | – | –
